{"source": "patent US10376520B2", "about": "“Methods for the treatment of cardiovascular disorders” (Galapagos NV, priority 2015, dated 2019)", "type_in_all_cases": "in vivo, human", "key": {"RA patients [1]": {"system": "RA patients", "assay": "[HDL] cholesterol level (Selectra autoanalyzer), Study 4", "conditions": "for HDL level, 4 weeks CFB: 4 weeks change from baseline", "procedure": "(§1) Randomized double-blind, placebo-controlled add on study in subjects with active RA who have an inadequate response to MTX monotherapy, in combination with methotrexate, administered for 4 weeks in the treatment of subjects with active rheumatoid arthritis who have an inadequate response to methotrexate alone.\n(§2) Compound 1 (dosed as a [Compound 1:HCl:3H2O]) capsules administered orally in 30 mg, 75 mg, 150 mg, or 300 mg doses per day for 4 weeks.\n(§3) Triglycerides, [HDL] cholesterol, and plasma cholesterol were measured on the Selectra autoanalyzer (Sopachem BV, 44-RI Straat 33, 4051 AP Ochten, The Netherlands). All assays were commercially available from DiaSys Diagnostic Systems GmbH, Alte Strasse 9, 65558 Holzheim, Germany."}, "RA patients [2]": {"system": "RA patients", "assay": "Plasma ApoC-III concentration (ELISA), Study 4", "conditions": "for ApoC-III level, 4 weeks CFB: 4 weeks change from baseline", "procedure": "as §1, §2\nPlasma ApoC-II and ApoC-III concentrations are determined using commercial available ELISA kits from Abnova (9th Floor, No. 108, Jhouzih St., Neihu District. Taipei City, 114, Taiwan) according to manufacturer's instruction. apoC2: catalogue number KA0464, lot number used: 08871403. apoC3: catalogue number KA0465, lot number used: 02961525."}, "RA patients [3]": {"system": "RA patients", "assay": "Plasma PCSK9 concentration (ELISA), Study 4", "conditions": "for PCSK9 level, 4 weeks CFB: 4 weeks change from baseline", "procedure": "as §1, §2\nPlasma PCSK9 concentration was determined using a commercial available ELISA kit from R&D systems (614 McKinley Place NE, Minneapolis, Minn. 55413, USA) according to manufacturer's instruction. Catalogue number DPC900, lot number used: 321050."}, "RA patients [4]": {"system": "RA patients", "assay": "Triglycerides level (Selectra autoanalyzer), Study 4", "conditions": "for Triglycerides level, 4 weeks CFB: 4 weeks change from baseline", "procedure": "as §1, §2, §3"}}}
{"smiles": "O=C(Nc1nc2cccc(-c3ccc(CN4CCS(=O)(=O)CC4)cc3)n2n1)C1CC1", "note": "[Compound 1, cyclopropanecarboxylic acid {5-[4-(1,1-dioxo-thiomorpholin-4-ylmethyl)-phenyl]-[1,2,4]triazolo[1,5-a]pyridin-2yl}-amide]", "values": [{"measurement": "HDL level, 4 weeks CFB", "setting": "RA patients [1]; 30 mg q.d.", "result": 6.7, "unit": "%"}, {"measurement": "HDL level, Baseline", "setting": "RA patients [1]; 30 mg q.d.", "result": 0.9, "unit": "mM"}, {"measurement": "HDL level, week 4", "setting": "RA patients [1]; 30 mg q.d.", "result": 1, "unit": "mM"}, {"measurement": "HDL level, 4 weeks CFB", "setting": "RA patients [1]; 75 mg q.d.", "result": 13.7, "unit": "%"}, {"measurement": "HDL level, Baseline", "setting": "RA patients [1]; 75 mg q.d.", "result": 1, "unit": "mM"}, {"measurement": "HDL level, week 4", "setting": "RA patients [1]; 75 mg q.d.", "result": 1.1, "unit": "mM"}, {"measurement": "HDL level, 4 weeks CFB", "setting": "RA patients [1]; 150 mg q.d.", "result": 10.7, "unit": "%"}, {"measurement": "HDL level, Baseline", "setting": "RA patients [1]; 150 mg q.d.", "result": 1, "unit": "mM"}, {"measurement": "HDL level, week 4", "setting": "RA patients [1]; 150 mg q.d.", "result": 1.1, "unit": "mM"}, {"measurement": "HDL level, 4 weeks CFB", "setting": "RA patients [1]; 300 mg q.d.", "result": 46.0, "unit": "%"}, {"measurement": "HDL level, Baseline", "setting": "RA patients [1]; 300 mg q.d.", "result": 1, "unit": "mM"}, {"measurement": "HDL level, week 4", "setting": "RA patients [1]; 300 mg q.d.", "result": 1.4, "unit": "mM"}, {"measurement": "ApoC-III level, 4 weeks CFB", "setting": "RA patients [2]; 30 mg q.d.", "result": 4.6, "unit": "%"}, {"measurement": "ApoC-III level, week 4", "setting": "RA patients [2]; 30 mg q.d.", "result": 78.6, "unit": "ng/mL"}, {"measurement": "ApoC-III level, 4 weeks CFB", "setting": "RA patients [2]; 75 mg q.d.", "result": 17.6, "unit": "%"}, {"measurement": "ApoC-III level, week 4", "setting": "RA patients [2]; 75 mg q.d.", "result": 79.6, "unit": "ng/mL"}, {"measurement": "ApoC-III level, 4 weeks CFB", "setting": "RA patients [2]; 150 mg q.d.", "result": 9.6, "unit": "%"}, {"measurement": "ApoC-III level, week 4", "setting": "RA patients [2]; 150 mg q.d.", "result": 82.7, "unit": "ng/mL"}, {"measurement": "ApoC-III level, 4 weeks CFB", "setting": "RA patients [2]; 300 mg q.d.", "result": 27.9, "unit": "%"}, {"measurement": "ApoC-III level, week 4", "setting": "RA patients [2]; 300 mg q.d.", "result": 88.2, "unit": "ng/mL"}, {"measurement": "PCSK9 level, 4 weeks CFB", "setting": "RA patients [3]; 30 mg q.d.", "result": 6.8, "unit": "%"}, {"measurement": "PCSK9 level, Baseline", "setting": "RA patients [3]; 30 mg q.d.", "result": 282.1, "unit": "ng/mL"}, {"measurement": "PCSK9 level, week 4", "setting": "RA patients [3]; 30 mg q.d.", "result": 296.9, "unit": "ng/mL"}, {"measurement": "PCSK9 level, 4 weeks CFB", "setting": "RA patients [3]; 75 mg q.d.", "result": 11.4, "unit": "%"}, {"measurement": "PCSK9 level, Baseline", "setting": "RA patients [3]; 75 mg q.d.", "result": 277.0, "unit": "ng/mL"}, {"measurement": "PCSK9 level, week 4", "setting": "RA patients [3]; 75 mg q.d.", "result": 292.4, "unit": "ng/mL"}, {"measurement": "PCSK9 level, 4 weeks CFB", "setting": "RA patients [3]; 150 mg q.d.", "result": 11.6, "unit": "%"}, {"measurement": "PCSK9 level, Baseline", "setting": "RA patients [3]; 150 mg q.d.", "result": 264.4, "unit": "ng/mL"}, {"measurement": "PCSK9 level, week 4", "setting": "RA patients [3]; 150 mg q.d.", "result": 294.6, "unit": "ng/mL"}, {"measurement": "PCSK9 level, 4 weeks CFB", "setting": "RA patients [3]; 300 mg q.d.", "result": 10.4, "unit": "%"}, {"measurement": "PCSK9 level, Baseline", "setting": "RA patients [3]; 300 mg q.d.", "result": 261.7, "unit": "ng/mL"}, {"measurement": "PCSK9 level, week 4", "setting": "RA patients [3]; 300 mg q.d.", "result": 291.2, "unit": "ng/mL"}, {"measurement": "Triglycerides level, 4 weeks CFB", "setting": "RA patients [4]; 30 mg q.d.", "result": 51.7, "unit": "%"}, {"measurement": "Triglycerides level, Baseline", "setting": "RA patients [4]; 30 mg q.d.", "result": 1.2, "unit": "mM"}, {"measurement": "Triglycerides level, week 4", "setting": "RA patients [4]; 30 mg q.d.", "result": 1.7, "unit": "mM"}, {"measurement": "Triglycerides level, 4 weeks CFB", "setting": "RA patients [4]; 75 mg q.d.", "result": 6.6, "unit": "%"}, {"measurement": "Triglycerides level, Baseline", "setting": "RA patients [4]; 75 mg q.d.", "result": 1, "unit": "mM"}, {"measurement": "Triglycerides level, week 4", "setting": "RA patients [4]; 75 mg q.d.", "result": 1.1, "unit": "mM"}, {"measurement": "Triglycerides level, 4 weeks CFB", "setting": "RA patients [4]; 150 mg q.d.", "result": 93.6, "unit": "%"}, {"measurement": "Triglycerides level, Baseline", "setting": "RA patients [4]; 150 mg q.d.", "result": 1.4, "unit": "mM"}, {"measurement": "Triglycerides level, week 4", "setting": "RA patients [4]; 150 mg q.d.", "result": 2.1, "unit": "mM"}, {"measurement": "Triglycerides level, 4 weeks CFB", "setting": "RA patients [4]; 300 mg q.d.", "result": 23.3, "unit": "%"}, {"measurement": "Triglycerides level, Baseline", "setting": "RA patients [4]; 300 mg q.d.", "result": 1.3, "unit": "mM"}, {"measurement": "Triglycerides level, week 4", "setting": "RA patients [4]; 300 mg q.d.", "result": 1.4, "unit": "mM"}]}
